Molecular target: T1, 5-HT1A serotonin receptor (Rattus norvegicus, UniProt P19327)
T1 construct: following the procedure of Hall et al., J. Neurochem; 44, 1685(1985); from tissue
T1 sequence (P19327 1-422): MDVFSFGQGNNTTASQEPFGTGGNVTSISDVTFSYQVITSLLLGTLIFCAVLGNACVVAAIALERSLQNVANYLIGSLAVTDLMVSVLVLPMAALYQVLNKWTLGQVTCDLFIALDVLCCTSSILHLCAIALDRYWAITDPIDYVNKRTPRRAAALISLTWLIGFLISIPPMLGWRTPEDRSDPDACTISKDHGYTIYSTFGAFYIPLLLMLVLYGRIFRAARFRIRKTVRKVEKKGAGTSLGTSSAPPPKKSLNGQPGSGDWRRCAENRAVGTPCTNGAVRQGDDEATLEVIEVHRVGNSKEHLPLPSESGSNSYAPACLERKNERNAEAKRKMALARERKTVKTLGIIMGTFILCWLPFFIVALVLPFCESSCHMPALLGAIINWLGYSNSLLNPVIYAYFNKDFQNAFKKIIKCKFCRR
Assay: displacement of [^3 H] 8-OHDPAT from the 5-HT1A serotonin receptor (procedure of Hall et al.)
Settings: read-out: 5-HT1A Binding (IC50)
Source text: High affinity for the serotonin 5-HT1A receptor was established by testing the claimed compound's ability to displace [^3 H] 8-OHDPAT (dipropylaminotetralin) from the 5-HT1A serotonin receptor following the procedure of Hall et al., J. Neurochem. 44, 1685(1985). […] The anxiolytic activity of buspirone is believed to be, at least partially, due to its 5-HT1A receptor affinity (Vander Maclen et al., Eur. J. Pharmacol. 1986, 129 (1-2) 133-130).
The result of the standard experimental test procedure described in the preceding paragraph was as follows when applied to the representative compound of this invention: […]

SMILES: COc1ccccc1N1CCN(CCC(C(=O)NCCN2CCOCC2)c2ccccc2)CC1 (stereo not shown) [Example 1, 4-[4-(2-Methoxy-phenyl)-piperazin-1-yl]-N-(2-morpholin-4-yl-ethyl)-2phenyl-butyramide]
- IC50: 95.2 nM
